Experimental data as given in patent US6184374A, “Targeted cytotoxic anthracycline analogs” (priority 1998, dated 2001).
Values joined by “and” are separate entries in the source; they are usually repeats but may differ in a detail not shown here. Equal values may be shown once. Read-outs that look alike come from different tables or passages of the source.

Assays:
[1] = test system: MCF-7 human mammary carcinoma cell line; type: cell-based
From the text: (§1) MXT estrogen-independen mouse mammary carcinoma cell line was obtained from Dr. Gunter Berndhart, University of Regensburg, Germany. All the other cell lines used in the determination of the antiproliferative activity of the compounds of this invention were obtained from the American Type Culture Collection (ATCC).
(§2) For the evaluation of the activity of the analogs, a colorimetric cytotoxicity assay in microtitration plates was used based on quantification of biomass by staining cells with crystal violet, which correlates very well with determination of cell numbers. (Reile et al.; Anal. Biochem. 187, 262-267, 1990; Bernhardt G. et al, J. Cancer Res. Clin. Oncol. (1992), 118, 35-43; Spruss Th. et al, J. Cancer Res. Clin. Oncol 117, 435-443, 1991; Gillies, R. J., Anal. Biochem. 159, 109-113, 1986; Kueng, W. et al.; Anal. Biochem., 182 16-19, 1989.)
(§3) One to two days after seeding cells in 96-well plates the culture medium is exchanged with fresh medium containing the compounds to be tested and fresh medium only for the control cultures. After varying time of incubation, cells are fixed with glutaric dialdehyde and stored under […] at 4° C. until the end of the experiment. Cells are stained with crystal violet and bound stain is extracted with 70% aqueous EtOH. Optical density is measured with EIA Reader (Bio-Tek Instruments) or Biomek 1000 (Beckman) at 590 nm or 600 nm, respectively. Each data point represents the mean value of eight culture wells. T/C values are calculated as T/C=(T-C0)/(C-C0) where T=optical density of treated cultures, C=optical density of control (untreated) cultures, C0 =optical density of cultures at the start of incubation (t=0).
Cells were incubated in IMEM media containing 5% Hl:DCC-FBS (heat inactivated dextran coated charcoal treated fetal bovine serum) on 96 well plates. Relative cell number in treated and control plates was determined by the crystal violet staining method and was expressed as T/C values where T/C=T-C0 /C-C0×100 [T=absorbance of treated cultures, C= absorbance of control cultures, C0 =absorbance of cultures at the start of incubation (t=0). The measured absorbance is proportionate to the cell number.]

[2] = test system: estrogen independent MXT mouse mammary cancers; assay: Treatment of estrogen independent MXT mouse mammary cancers (KS-49); type: in vivo
From the text: In order to compare the tumor inhibitory activity of cytotoxic doxorubicin derivative, Q6 and its targeted cytotoxic peptide conjugate, Q6^14 gL as well as the well known antineoplastic agent, DOX and to determine the optimal way of administration and the nontoxic doses, LH-RH receptor positive MXT (3.2) ovex tumor pieces (1 mm^3) were implanted s. c. in female B6 D2 F1 mice. One day after transplantation the mice were randomly divided into groups of five animals and the treatment started. The compounds were dissolved in 0.1% trifluoroacetic acid (pH 2) and given intraperitoneally.

[3] = test system: MXT estrogen independent mouse mammary carcinoma cell line; assay: In vitro cytotoxic activity, crystal violet colorimetric assay on MXT; type: cell-based
From the text: as §1, §2, §3

[4] = Table 17-1; 3 × 10^-8 M; incubation 70 hr
[5] = Table 17-1; 3 × 10^-8 M; incubation 120 hr
[6] = Table 17-1; 3 × 10^-9 M; incubation 70 hr
[7] = Table 17-1; 3 × 10^-9 M; incubation 120 hr
[8] = Table 17-1; 10^-8 M; incubation 70 hr
[9] = Table 17-1; 10^-8 M; incubation 120 hr
[10] = Table 17-1; 3 × 10^-10 M; incubation 70 hr
[11] = Table 17-1; 3 × 10^-10 M; incubation 120 hr
[12] = Table 17-1; 10^-9 M; incubation 70 hr
[13] = Table 17-1; 10^-9 M; incubation 120 hr

What does the source list for COc1cccc2c1C(=O)c1c(O)c3c(c(O)c1C2=O)C[C@@](O)(C(=O)CO)C[C@@H]3O[C@H]1C[C@H](N2CCCCC2)[C@H](O)[C@H](C)O1 [AN-183, Piperidino-DOX]?
T/C Value [1, 4]: 4; T/C Value [1, 5]: 0; T/C Value [1, 6]: 114; T/C Value [1, 7]: 109; T/C Value [1, 8]: 70; T/C Value [1, 9]: 67

What does the source list for COc1cccc2c1C(=O)c1c(O)c3c(c(O)c1C2=O)C[C@@](O)(C(=O)CO)C[C@@H]3O[C@H]1C[C@H](N2Cc3ccccc3C2)[C@H](O)[C@H](C)O1.O=C(O)C(F)(F)F [Compound Q3, 3'-deamino-3'-(isoindoline-2"-yl)doxorubicin]?
T/C Value ([1]; Table 17-1, 10^-8 M; incubation 70 hr): -11; T/C Value ([1]; Table 17-1, 10^-8 M; incubation 120 hr): -29; T/C Value [1, 4]: 86; T/C Value [1, 5]: 77; T/C Value [1, 8]: 118; T/C Value [1, 9]: 108

With COc1cccc2c1C(=O)c1c(O)c3c(c(O)c1C2=O)C[C@@](O)(C(=O)CO)C[C@@H]3O[C@H]1C[C@H](N2CC=CC2)[C@H](O)[C@H](C)O1.O=C(O)C(F)(F)F [Compound Q4, 3'-deamino-3'-(3"-pyrroline-1"-yl)doxorubicin] as the compound, how does the “T/C Value” [1, 5] read?
The value was -5.

And the “T/C Value” [1, 6]?
The value was 106.

And the “T/C Value” [1, 7]?
Its value is 97.

What about the “T/C Value” [1, 8] of the same compound?
Its value is 72.

What about the “T/C Value” [1, 9] of the same compound?
The value was 65.

How did the “T/C Value” [1, 4] turn out when COc1cccc2c1C(=O)c1c(O)c3c(c(O)c1C2=O)C[C@@](O)(C(=O)CO)C[C@@H]3O[C@H]1C[C@H](N2CCC(=O)C2)[C@H](O)[C@H](C)O1.O=C(O)C(F)(F)F [Compound Q5, 3'-deamino-3'-(3"-pyrrolidone-1"-yl) doxorubicin] was run?
Its value is -28.

And the “T/C Value” [1, 5]?
The value was -10.

What about the “T/C Value” [1, 6] of the same compound?
The value was 87.

What about the “T/C Value” [1, 7] of the same compound?
Its value is 67.

What about the “T/C Value” [1, 8] of the same compound?
Its value is 30.

What about the “T/C Value” [1, 9] of the same compound?
Its value is 25.

COc1cccc2c1C(=O)c1c(O)c3c(c(O)c1C2=O)C[C@@](O)(C(=O)CO)C[C@@H]3OC1CC(N2C=CCC2)C(O)C(C)O1 (some centres unmarked) [Compound Q6, 3'-deamino-3'-(2"-pyrroline-1"-yl)doxorubicin] was tested. Which “T/C Value” [1, 6] did it give?
Its value is -18.

What about the “T/C Value” [1, 7] of the same compound?
The value was -9.

What about the “T/C Value” [1, 10] of the same compound?
Its value is 50.

What about the “T/C Value” [1, 11] of the same compound?
The value was 26.

And the “T/C Value” [1, 12]?
Its value is -3.

What about the “T/C Value” [1, 13] of the same compound?
Its value is 2.

And the “T/C Value on MCF-7 Cell Line” value ([1]; Table 18-1; 3 × 10^-9 M; 70 hr)?
The value was -18.

What about the “T/C Value on MCF-7 Cell Line” value ([1]; Table 18-1; 3 × 10^-9 M; 120 hr) of the same compound?
Its value is -9.

And the “T/C Value on MCF-7 Cell Line” value ([1]; Table 18-1; 10^-9 M; 70 hr)?
Its value is -3.

And the “T/C Value on MCF-7 Cell Line” value ([1]; Table 18-1; 10^-9 M; 120 hr)?
The value was 2.

What about the “T/C Value on MCF-7 Cell Line” value ([1]; Table 18-1; 10^-10 M (by column position); 70 hr) of the same compound?
The value was 50.

And the “T/C Value on MCF-7 Cell Line” value ([1]; Table 18-1; 10^-10 M (by column position); 120 hr)?
Its value is 26.

And the Average survival ([2]; 0.2 nmol/inj. i.p., total 21 nmol (Groups 5 and 9))?
Its Average survival is 13.0 days.

And the Average survival ([2]; 0.5 nmol/inj. i.p., 5 inj./week, total 7.5 nmol (Groups 3 and 7))?
Its Average survival is 19.6 days.

What about the Toxicity ([2]; 1.25 nmol on day 1, 2, 7 and 8) of the same compound?
Its Toxicity is “strong toxicity”.

What about the Average survival ([2]; 1.25 nmol/inj. i.p., 2 inj./week, day 1, 2, 7 and 8 (Groups 2 and 6)) of the same compound?
The Average survival was 17.4 days and 17.5 days.

And the Average survival ([2]; 0.25 * nmol/inj. i.p. (dose raised day 9 to 12), total 9.5 nmol (Groups 4 and 8))?
The Average survival was 14.6 days.

What about the “Average final tumor volume” value ([2]; Group 2, 1.25 nmol on day 1, 2, 7 and 8, at day 16) of the same compound?
Its value is 1065 mm^3.

And the “T/C value on MXT cell line” value ([3]; 3 × 1^-11 M (so in the source), 28 hr)?
The value was 90.

And the “T/C value on MXT cell line” value ([3]; 3 × 1^-11 M (so in the source), 69 hr)?
Its value is 52.

And the “T/C value on MXT cell line” value ([3]; 3 × 10^-10 M, 28 hr)?
Its value is 56.

And the “T/C value on MXT cell line” value ([3]; 3 × 10^-10 M, 69 hr)?
Its value is -13.

And the “T/C value on MXT cell line” value ([3]; 10^-10 M, 28 hr)?
The value was 78.

And the “T/C value on MXT cell line” value ([3]; 10^-10 M, 69 hr)?
The value was 6.

What does the source list for COc1cccc2c1C(=O)c1c(O)c3c(c(O)c1C2=O)C[C@@](O)(C(=O)CO)C[C@@H]3O[C@H]1C[C@H](N2CCCC(=O)C2)[C@H](O)[C@H](C)O1.O=C(O)C(F)(F)F [Compound Q7, 3'-deamino-3'-(3"-piperidone-1"-yl) doxorubicin]?
T/C Value [1, 4]: 59; T/C Value [1, 5]: 43; T/C Value [1, 6]: 96; T/C Value [1, 7]: 97; T/C Value [1, 8]: 80; T/C Value [1, 9]: 70

COc1cccc2c1C(=O)c1c(O)c3c(c(O)c1C2=O)C[C@@](O)(C(=O)CO)C[C@@H]3O[C@H]1C[C@H](N2C=CCCC2)[C@H](O)[C@H](C)O1.O=C(O)C(F)(F)F [Compound Q8, 3'-deamino-3'-(1",3"-tetrahydropyridine-1"-yl)doxorubicin] was tested. Which “T/C Value” [1, 6] did it give?
Its value is 69.

What about the “T/C Value” [1, 7] of the same compound?
Its value is 62.

And the “T/C Value” [1, 10]?
The value was 96.

What about the “T/C Value” [1, 11] of the same compound?
Its value is 99.

And the “T/C Value” [1, 12]?
The value was 88.

What about the “T/C Value” [1, 13] of the same compound?
The value was 93.
